These results are taken from ChEMBL document CHEMBL1201862, “PubChem BioAssay data set” (2004).

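A five-concentration, 48-hour dose response in 96-well plates underlies each endpoint, interpolated linearly between surrounding concentrations. Abbreviation: GI50, concentration required for 50% inhibition of growth.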 Active and inactive are the calls of the source. Cut-off read from the data, not from the text of the source: active = GI50 up to about 1.1 µM and inactive = higher.

Among the test systems are U-251; HCT-15; IGROV-1; UACC-257; A549; HL-60; SF-268; EKVX; COLO 205; 786-0; SF-295; NCI/ADR-RES; MDA-MB-435; MDA-N; NCI-H226; OVCAR-3; DU-145; HCC 2998; LOX IMVI; HOP-92.
Common to all, as to assay: NCI anticancer screen, dose series, 48 h

For the molecule `NNc1nncc2[nH]nnc12`, the GI50 with U-251 is > 100 µM (inactive); in the experiment on HCT-15 it was above 100 µM; in the experiment on IGROV-1, > 100 µM (inactive); with UACC-257, > 100 µM (inactive); in the experiment on A549, > 100 µM (inactive); in the experiment with HL-60, 48.1 µM (inactive). Moreover, the GI50 in the experiment on SF-268, with EKVX, with COLO 205, in the experiment with 786-0, in the experiment on SF-295 and in the experiment with NCI/ADR-RES was > 100 µM (inactive) each time. The GI50 with MDA-MB-435, in the experiment with MDA-N, with NCI-H226, with OVCAR-3 and in the experiment on DU-145 was > 100 µM (inactive) throughout.

`O=[N+]([O-])C(=C1Nc2ccccc2N1)/C(Cl)=C(/Cl)N1CCOCC1`: the GI50 in the experiment on U-251 was 61.9 µM (inactive); in the experiment on HCT-15 it was 31.8 µM; in the experiment with HCC 2998, > 100 µM (inactive); with UACC-257, > 100 µM (inactive); in the experiment with A549, > 100 µM (inactive); in the experiment on SF-268 it was 22.6 µM (inactive). Moreover, the GI50 in the experiment on EKVX was > 100 µM (inactive); in the experiment on COLO 205 it was 80.9 µM (inactive); in the experiment on 786-0, 98.9 µM (inactive); in the experiment on SF-295 it was 98.4 µM (inactive); in the experiment on NCI/ADR-RES, 57.8 µM (inactive); with MDA-MB-435, > 100 µM (inactive). Further, the GI50 in the experiment with MDA-N is > 100 µM (inactive); with NCI-H226, > 100 µM (inactive); in the experiment on OVCAR-3 it was 26.7 µM (inactive).

With `CCc1cccc(CC)c1Nc1nc2c(s1)C(=O)c1ccccc1C2=O`, the GI50 with U-251 was 15.8 µM (inactive); in the experiment on HCT-15, 25.7 µM; with IGROV-1, 12.2 µM (inactive); in the experiment on HCC 2998, 18.7 µM (inactive); with UACC-257 it was 19.5 µM (inactive); in the experiment on A549 it was 31.4 µM (inactive). The GI50 was 26.4 µM (inactive) in the experiment with HL-60; 16.9 µM (inactive) with SF-268; 16.3 µM (inactive) in the experiment with EKVX; 22.9 µM (inactive) with COLO 205; 18 µM (inactive) in the experiment on LOX IMVI; 20.9 µM (inactive) with 786-0. The GI50 in the experiment on SF-295 was 13.7 µM (inactive); with MDA-MB-435, 17.5 µM (inactive); with MDA-N, 17.5 µM (inactive); in the experiment with HOP-92, 19.5 µM (inactive); with OVCAR-3 it was 13.7 µM (inactive); in the experiment on DU-145, 21.6 µM (inactive).

For `C=C(C(=O)OCC)C(=O)OCC`, the GI50 is > 100 µM (inactive) in the experiment with U-251; above 100 µM with HCT-15; > 100 µM (inactive) in the experiment on IGROV-1; > 100 µM (inactive) in the experiment with HCC 2998; > 100 µM (inactive) in the experiment on UACC-257; > 100 µM (inactive) with A549. Besides, the GI50 with SF-268, in the experiment on EKVX, in the experiment on COLO 205, in the experiment on LOX IMVI, with 786-0 and in the experiment with SF-295 was > 100 µM (inactive) in each case. The GI50 in the experiment with MDA-MB-435, with MDA-N, with NCI-H226, in the experiment on HOP-92, with OVCAR-3 and in the experiment on DU-145 was > 100 µM (inactive) throughout.

Consider `COc1ccc(COCC[C@H](C)OC2OC(CO)C(O)C(O)C2O)cc1` (stereo partly specified), for which the GI50 with U-251 was > 100 µM (inactive); in the experiment with HCT-15, above 100 µM; in the experiment with IGROV-1 it was > 100 µM (inactive); with HCC 2998 it was > 100 µM (inactive); with UACC-257, > 100 µM (inactive); in the experiment on A549 it was > 100 µM (inactive). Moreover, the GI50 with HL-60, with SF-268, in the experiment with EKVX, in the experiment with COLO 205, with LOX IMVI and with 786-0 was > 100 µM (inactive) in each case. In addition, the GI50 with SF-295, with NCI/ADR-RES, in the experiment with MDA-MB-435, in the experiment on NCI-H226, in the experiment with HOP-92 and with OVCAR-3 was > 100 µM (inactive) in each case. Moreover, the GI50 with DU-145 was > 100 µM (inactive).

As for `CC(C)c1ccc(/C=C2\N=C(c3ccc([N+](=O)[O-])cc3)OC2=O)cc1`, the GI50 was 54.2 µM (inactive) with U-251; above 100 µM with HCT-15; > 100 µM (inactive) in the experiment on IGROV-1; > 100 µM (inactive) with HCC 2998; > 100 µM (inactive) with UACC-257; > 100 µM (inactive) in the experiment with A549. Besides, the GI50 in the experiment on HL-60, in the experiment with SF-268, in the experiment on EKVX, in the experiment with COLO 205, in the experiment on LOX IMVI and in the experiment on 786-0 was > 100 µM (inactive) in each case. In addition, the GI50 in the experiment on SF-295, in the experiment on MDA-MB-435, with MDA-N, in the experiment with NCI-H226, in the experiment with HOP-92 and in the experiment on OVCAR-3 was > 100 µM (inactive) throughout. The GI50 in the experiment on DU-145 is > 100 µM (inactive).

Take `COc1cc(OC)c2c(c1-c1ccc(C)cc1)CC(C)N(Cc1ccccc1)[C@H]2C` (stereo partly specified): the GI50 is 35.9 µM with HCT-15; 80.4 µM (inactive) with IGROV-1; 31.1 µM (inactive) in the experiment with HCC 2998; 25.2 µM (inactive) in the experiment with UACC-257; 44.2 µM (inactive) in the experiment with A549; 12.2 µM (inactive) in the experiment with HL-60. In addition, the GI50 in the experiment with SF-268 is 31.3 µM (inactive); in the experiment with EKVX, 43.9 µM (inactive); with COLO 205, 32.3 µM (inactive); with LOX IMVI it was 36.2 µM (inactive); with 786-0, 33.7 µM (inactive); with SF-295 it was 70.3 µM (inactive). For the same molecule, the GI50 was 33.3 µM (inactive) in the experiment with MDA-MB-435, 33.7 µM (inactive) with MDA-N, 49.4 µM (inactive) in the experiment on NCI-H226 and 86.3 µM (inactive) in the experiment with DU-145.

With `O=C1NC(=S)N/C1=C\c1ccc(Cl)cc1`, the GI50 in the experiment on U-251 is > 100 µM (inactive); in the experiment with HCT-15 it was above 100 µM; in the experiment on IGROV-1 it was > 100 µM (inactive); in the experiment on HCC 2998 it was > 100 µM (inactive); in the experiment on A549, 93.1 µM (inactive); in the experiment with SF-268, > 100 µM (inactive). Also, the GI50 with EKVX is 33.6 µM (inactive); with COLO 205, 80.5 µM (inactive); in the experiment on LOX IMVI, > 100 µM (inactive); with 786-0, > 100 µM (inactive); in the experiment with SF-295, > 100 µM (inactive); in the experiment with NCI/ADR-RES it was > 100 µM (inactive). In addition, the GI50 in the experiment on MDA-MB-435 was > 100 µM (inactive); in the experiment on MDA-N, > 100 µM (inactive); in the experiment on NCI-H226, > 100 µM (inactive); in the experiment with OVCAR-3, > 100 µM (inactive); with DU-145 it was 99.8 µM (inactive).

On to `CSc1c(C#N)c(O)nc(N)c1C(=O)Nc1ccc(C)cc1`, for which the GI50 in the experiment on U-251 was > 100 µM (inactive); with HCT-15, above 100 µM; in the experiment on HCC 2998, > 100 µM (inactive); in the experiment with UACC-257, > 100 µM (inactive); with A549, > 100 µM (inactive); in the experiment with HL-60, > 100 µM (inactive). Also, the GI50 in the experiment with SF-268, in the experiment on EKVX, in the experiment with COLO 205, with LOX IMVI, with 786-0 and in the experiment with NCI/ADR-RES was > 100 µM (inactive) in each case. The GI50 with MDA-MB-435 was > 100 µM (inactive); in the experiment with MDA-N, > 100 µM (inactive); with NCI-H226 it was 34.4 µM (inactive); in the experiment with OVCAR-3, > 100 µM (inactive); in the experiment with DU-145 it was > 100 µM (inactive).
